9 molecules from US20170009272A1, “IN-SILICO BASED TECHNIQUES IN THE IDENTIFICATION OF POTENT ß-GLUCORONIDASE INHIBITORS” (priority 2015, published 2017) can be followed below.

Data set [1] in a line: Cytotoxicity assay (MTT) on 3T3 mouse fibroblast cells. The format is cell-based. The settings on record: 1-30 μM tested. As for the experimental part: (§1) Cytotoxicity assay Protocol: Cytotoxic activity of compounds was evaluated in 96-well flat-bottomed micro plates by using the standard MTT (3-[4,5-dimethylthiazole-2-yl]-2,5-diphenyl-tetrazolium bromide) colorimetric assay (15). For this purpose, 3T3 (mouse fibroblast) cells were cultured in Dulbecco's Modified Eagle Medium, supplemented with 5% of fetal bovine serum (FBS), 100 IU/ml of penicillin and 100 μg/ml of streptomycin in 75 cm^2 flasks, and kept in 5% CO2 incubator at 37° C. Exponentially growing cells were harvested, counted with haemocytometer and diluted with a particular medium. Cell culture with the concentration of 5×10^4 cells/ml was prepared and introduced (100 μL/well) into 96-well plates.
(§2) After overnight incubation, medium was removed and 200 μL of fresh medium was added with different concentrations of compounds (1-30 μM). After 48 hrs, 200 ptL MTT (0.5 mg/ml) was added to each well and incubated further for 4 hrs. Subsequently, 100 μLof DMSO was added to each well. The extent of MTT reduction to formazan within cells was calculated by measuring the absorbance at 540 nm, using a micro plate reader (Spectra Max plus, Molecular Devices, Calif., USA). The cytotoxicity was recorded as concentration causing 50% growth inhibition (IC50) for 3T3 cells. The percent inhibition was calculated by using the following formula
(§3) % inhibition=100−((mean of O.D of test compound−mean of O.D of negative control)/(mean of O.D of positive control−mean of O.D of negative control)*100).
(§4) The results (% inhibition) were processed by using Soft-Max Pro software (Molecular Device, USA).

Data set [2] deals with T1, β-glucoronidase (Escherichia coli, UniProt P05804).
T1 construct: purchased Sigma Aldrich G7396-25KU
Briefly: β-Glucuronidase inhibition assay (spectrophotometric, p-nitrophenyl-β-D-glucuronide substrate). In kind it is biochemical. The settings on record: for % inhibition: test concentration not given. The method, then:
β-Glucuronidase inhibition assay protocol: Inhibitory activity of β-Glucuronidase was determined with the help of spectrophotometric method by measuring the absorbance at 405 nm of p-nitro phenol formed from the substrate (p-nitro phenyl-β-D-glucuronide, N1627-250 mg, Sigma Aldrich). The total reaction volume was 250 μL. The compound dissolved in DMSO (100%), which becomes 2% in the ultimate assay (250 μL) and the similar conditions were used for standard (D-saccharin acid 1,4-lactone, Sigma Aldrich). The reaction mixture contained 185 μL of 0.1 M acetate buffer, 5 μL of test compound solution, 10 μL of (1U) enzyme solution (G7396-25KU, Sigma Aldrich) was incubated at 37° C. for 30 min. The plates were read on a multiplate reader (SpectraMax plus 384) at 405 nm after the addition of 50 μL of 0.4 mM p-nitrophenyl-β-D-glucuronide. All assays were performed in triplicate. IC50 Values were calculated by using EZ-Fit software (Perrella Scientific Inc., Amherst, Mass., U.S.A.). These values are the mean of three independent readings.

Data set [3] relates to 3T3 (mouse fibroblast) cells. Nature of the data set: Cytotoxicity assay (MTT) on 3T3 mouse fibroblast cells. The settings on record: 48 hrs, 1-30 μM tested. The format is cell-based. As for the experimental part: as §1, §2, §3, §4
Setting [4] is: β-glucuronidase, 37° C., 30 min incubation, absorbance at 405 nm, mean of three readings, read-out: IC50.

Where two headings read alike, the source gives them in different places.

T1 sequence (P05804 whole entry): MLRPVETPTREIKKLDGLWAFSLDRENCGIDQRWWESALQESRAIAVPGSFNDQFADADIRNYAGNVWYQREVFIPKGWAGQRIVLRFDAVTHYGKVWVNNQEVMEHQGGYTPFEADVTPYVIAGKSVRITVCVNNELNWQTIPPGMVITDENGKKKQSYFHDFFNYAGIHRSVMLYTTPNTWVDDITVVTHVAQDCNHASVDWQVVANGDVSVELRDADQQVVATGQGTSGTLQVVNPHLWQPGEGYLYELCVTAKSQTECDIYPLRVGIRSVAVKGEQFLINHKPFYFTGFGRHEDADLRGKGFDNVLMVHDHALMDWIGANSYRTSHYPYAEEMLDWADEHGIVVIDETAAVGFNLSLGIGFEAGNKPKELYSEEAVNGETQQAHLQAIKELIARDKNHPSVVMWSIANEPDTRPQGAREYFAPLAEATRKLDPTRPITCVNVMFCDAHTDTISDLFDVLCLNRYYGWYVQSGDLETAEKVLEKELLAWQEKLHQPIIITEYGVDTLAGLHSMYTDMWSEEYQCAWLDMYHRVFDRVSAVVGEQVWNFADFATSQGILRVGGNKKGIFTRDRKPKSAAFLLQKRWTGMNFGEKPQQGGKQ

Regarding `Oc1cccc(C(c2c[nH]c3ccc(Br)cc23)c2c[nH]c3ccc(Br)cc23)c1O` [Compound 1], the IC50 – broadly, the concentration needed to halve the response being measured – at 48 h in data set [1] worked out at 16.8 ± 0.997 µM. The molecule also gave a concentration for half-maximal inhibition (IC50) in data set [2] of 1.2 ± 1.03 µM. Besides, the % inhibition (as a rule, the drop in the measured response relative to a control, in per cent) in data set [2] (β-glucuronidase) was found to be 97.8%.
Take `O=C(/C=C/c1ccc(O)cc1)OC[C@@H]1C[C@H](Oc2cc(O)c3c(=O)cc(-c4ccc(O)cc4)oc3c2)[C@@H](O)[C@H](O)[C@H]1O` [Compound 3]: the half-maximal inhibitory concentration (IC50) at 48 h in data set [1] is more than 30 µM. In addition, in data set [2] (setting [4]), the IC50 turned out to be 4.5 ± 0.44 µM. For the same molecule, in data set [2] (β-glucuronidase), the “% inhibition” value was 96.9%.
In data set [1], `COc1ccc(C=NN2C(c3n[nH]c(=S)[nH]3)=C(O)c3ccccc3S2(=O)=O)cc1OC` [Compound 5] gave an IC50 at 48 h of 13.8 ± 0.967 µM. The molecule further came in with a concentration for half-maximal inhibition (IC50) in data set [2] of 11.41 ± 0.04 µM. The “% inhibition” value in data set [2] (β-glucuronidase) was 78.1%.
In data set [1], `C=S1(=O)c2ccccc2C(O)=C(c2n[nH]c(=S)[nH]2)N1/N=C/c1ccc(OC)c(OC)c1OC` (centres unmarked) [Compound 6] yielded an IC50 at 48 h of 17.1 ± 1.41 µM. Besides, the half-inhibitory concentration (IC50) in data set [2] (setting [4]) turned out to be 11.8 ± 0.86 µM. Further, in data set [2] (β-glucuronidase), the “% inhibition” value was found to be 81.0%.
The like results for `CCN(CC)c1ccc(/C=N/N2C(c3n[nH]c(=S)[nH]3)=C(O)c3ccccc3S2(=O)=O)cc1` [Compound 7] were, in that order, more than 30 µM, 14.7 ± 1.88 µM and 95.1%.
In data set [3], `COc1cccc(/C=N/N2C(c3n[nH]c(=S)[nH]3)=C(O)c3ccccc3S2(=O)=O)c1O` [Compound 10] displayed a half-maximal inhibitory concentration (IC50) of 19.5 ± 1.07 µM. Moreover, the “% inhibition” value in data set [2] (β-glucuronidase) was found to be 93.4%.
On to `N#Cc1ccc2[nH]cc(C(c3ccccc3[N+](=O)[O-])c3c[nH]c4ccc(C#N)cc34)c2c1` [Compound 11], for which the IC50 at 48 h in data set [1] turned out to be 9.56 ± 0.134 µM. This molecule returned an IC50 in data set [2] of 34.9 ± 0.21 µM. Besides, the “% inhibition” value in data set [2] (β-glucuronidase) is 57.3%.
Consider `O=C1OC(C(O)C(=O)O)C(O)C1O` [D-sacharric 1,4-lactone, D-saccharic acid, 1,4-lactone, reference compound], for which, in data set [2] (setting [4]), the half-inhibitory concentration (IC50) worked out at 45.5 ± 2.16 µM. Further, the “% inhibition” value in data set [2] (β-glucuronidase) is given as 89.4%.
With `C[C@@H]1C[C@@H]([C@H](O)CC2CC(=O)NC(=O)C2)C(=O)[C@@H](C)C1` [cycloheximide, reference compound], the half-maximal inhibitory concentration (IC50) at 48 h in data set [1] turned out to be 0.2 µM.
